Measured values as given in patent publication US20120060243A1, “Herbicide-Resistant AHAS-Mutants and Methods of Use” (priority 2008, published 2012).

Tests used:
Assay type in all cases: in vivo, Brassica napus
BN02 (wild-type) = assay: Foliar spray response of whole plants, FIG. 2; settings: 210 g ai/ha + 0.5% v/v Merge, 3-4 leaf stage, three weeks after treatment, line BN02
Description: (§1) In addition, B. napus plants (3-4 leaf stage) containing the double mutant were analyzed for response to treatment with imazamox compared to wild type plants. Lines BN02 (wild-type) and BnCL131A1 (AHAS III A122T:S653N, double mutant) were treated with either 210 g ai/ha imazamox supplemented with 0.5% v/v Merge by foliar spray or left unsprayed as checks. FIG. 2 provides the results for plants BN02 (top row) and BnCL131A1 (bottom row).

[1] = test system: BnCL131A1 (AHAS III A122T:S653N, double mutant); assay: Foliar spray response of whole plants, FIG. 2; settings: 210 g ai/ha + 0.5% v/v Merge, 3-4 leaf stage, three weeks after treatment, line BnCL131A1
Description: as §1

BN-02 (wild type) = assay: Plant injury after herbicide spray, Table 3; settings: 3-4 leaf stage, 2 weeks after treatment, line BN-02
Description: (§2) B. napus plants containing the double mutant were also tested for plant injury due to imidazolinone herbicide application. B. napus plants for lines BN02 (wild type), BnCL131A1 (AHAS III A122T:S653N double mutant), BnCL120C7 (AHAS III A122T single mutant), BnCL97 (AHAS III S653N single mutant), PM1/PM2 (commercial two gene check), PM1 (AHAS I S653N single mutant) and PM2 (AHAS III W574L single mutant) were grown from seed until 3-4 leaf stage then either left unsprayed or sprayed with 35, 70 or 210 g ai/ha imazamox supplemented with 0.5% v/v Merge. Herbicide injury was evaluated 2 weeks after treatment (DAT) on 8-24 plants per line using a 0 to 9 scale where 0 is no injury and 9 is plant death. The results are presented as mean injury±one standard error of the mean in Table 3 below. The results presented cover two independent plantings and sprays for all lines except BnCL97. The table also presents values for ±one standard error of the mean.

[2] = test system: BnCL120C7 (AHAS III A122T single mutant); assay: Plant injury after herbicide spray, Table 3; settings: 3-4 leaf stage, 2 weeks after treatment, line BnCL120C7
Description: as §2

[3] = test system: BnCL131A1 (AHAS III A122T:S653N double mutant); assay: Plant injury after herbicide spray, Table 3; settings: 3-4 leaf stage, 2 weeks after treatment, line BnCL131A1
Description: as §2

[4] = test system: BnCL97 (AHAS III S653N single mutant); assay: Plant injury after herbicide spray, Table 3; settings: 3-4 leaf stage, 2 weeks after treatment, line BnCL97
Description: as §2

[5] = test system: PM1 (AHAS I S653N single mutant); assay: Plant injury after herbicide spray, Table 3; settings: 3-4 leaf stage, 2 weeks after treatment, line PM1
Description: as §2

[6] = test system: PM1/PM2 (commercial two gene check); assay: Plant injury after herbicide spray, Table 3; settings: 3-4 leaf stage, 2 weeks after treatment, line PM1/PM2
Description: as §2

[7] = test system: PM2 (AHAS III W574L single mutant); assay: Plant injury after herbicide spray, Table 3; settings: 3-4 leaf stage, 2 weeks after treatment, line PM2
Description: as §2

[8] = test system: BNCL120C7 (BN-02) (AHASIII A122T); assay: Field test herbicide injury, Minot; settings: 200 g ai/ha, 15 days after treatment, A122T single mutant BNCL120C7 (BN-02)
Text: (§3) B. napus plants from the following spring oilseed rape lines: BN-02 (wild type), BN-T (wild type), BnCL131A1 in a BN-02 background genotype (AHAS III A122T S653N double mutant), BnCL120C7 in a BN-02 background genotype (BnAHASIII A122T), BnCL97 in a BN-02 background genotype (BnAHASIII S653N), PM1/PM2 in a BN-T background (two gene check: AHAS I S653N & AHAS III W574L), PM1 in a BN-T background (one gene check: AHAS I S653N) and PM2 in a BN-T background (one gene check: AHAS III W574L) were field tested at a site near Minot, N. Dak. Lines were planted in 5 m long single row plots and arranged in a two factorial split plot design with 3 repetitions and 4 treatments (0 g ai/ha imazamox, 50 g ai/ha imazamox, 100 g ai/ha imazamox and 200 g ai/ha imazamox). Plants were sprayed at the 2-4 leaf stage with the above mentioned imazamox treatments. The imazamox product (Beyond 120 g/L LC+0.25% (v/v) non-ionic surfactant) was diluted in 20 gallons per acre (or 200 liters/ha) and applied using a tractor mounted boom.
(§4) Herbicide injury was evaluated 15 days after treatment (DAT) on a per plot basis using a scale from 0 to 100%, where 0 was no injury and 100% was complete plant death.

[9] = test system: BnCL131A1 (BN-02) (AHAS III A122T, S653N); assay: Field test herbicide injury, Minot; settings: 200 g ai/ha
Text: as §3, §4

[10] = test system: BnCL97 (BN-02) (AHASIII S653N); assay: Field test herbicide injury, Minot; settings: 200 g ai/ha, 15 days after treatment, S653N single mutant BnCL97 (BN-02)
Text: as §3, §4

**Q.** Which results are given for `COCc1cnc(C2=NC(C)(C(C)C)C(=O)N2)c(C(=O)O)c1` (stereo not drawn) [imazamox]?
**A.** response to treatment with imazamox (tolerance) (BN02 (wild-type)): nearly non-tolerant; response to treatment with imazamox (tolerance) [1]: almost completely tolerant; Herbicide injury, mean ± one standard error of the mean, 0 to 9 scale (0 no injury, 9 plant death) (BN-02 (wild type); 35 g ai/ha + 0.5% v/v Merge): 9.00 ± 0.00; Herbicide injury, mean ± one standard error of the mean, 0 to 9 scale (0 no injury, 9 plant death) (BN-02 (wild type); 70 g ai/ha + 0.5% v/v Merge): 9.00 ± 0.00; Herbicide injury, mean ± one standard error of the mean, 0 to 9 scale (0 no injury, 9 plant death) (BN-02 (wild type); 210 g ai/ha + 0.5% v/v Merge): 9.00 ± 0.00; Herbicide injury, mean ± one standard error of the mean, 0 to 9 scale (0 no injury, 9 plant death) ([2]; 35 g ai/ha + 0.5% v/v Merge): 4.19 ± 0.39; Herbicide injury, mean ± one standard error of the mean, 0 to 9 scale (0 no injury, 9 plant death) ([2]; 70 g ai/ha + 0.5% v/v Merge): 5.43 ± 0.24; Herbicide injury, mean ± one standard error of the mean, 0 to 9 scale (0 no injury, 9 plant death) ([2]; 210 g ai/ha + 0.5% v/v Merge): 6.65 ± 0.30; Herbicide injury, mean ± one standard error of the mean, 0 to 9 scale (0 no injury, 9 plant death) ([3]; 35 g ai/ha + 0.5% v/v Merge): 0.76 ± 0.33; Herbicide injury, mean ± one standard error of the mean, 0 to 9 scale (0 no injury, 9 plant death) ([3]; 70 g ai/ha + 0.5% v/v Merge): 2.53 ± 0.24; Herbicide injury, mean ± one standard error of the mean, 0 to 9 scale (0 no injury, 9 plant death) ([3]; 210 g ai/ha + 0.5% v/v Merge): 3.22 ± 0.33; Herbicide injury, mean ± one standard error of the mean, 0 to 9 scale (0 no injury, 9 plant death) ([4]; 35 g ai/ha + 0.5% v/v Merge): 4.08 ± 0.15; Herbicide injury, mean ± one standard error of the mean, 0 to 9 scale (0 no injury, 9 plant death) ([4]; 70 g ai/ha + 0.5% v/v Merge): 8.58 ± 0.15; Herbicide injury, mean ± one standard error of the mean, 0 to 9 scale (0 no injury, 9 plant death) ([4]; 210 g ai/ha + 0.5% v/v Merge): 8.00 ± 0.23; Herbicide injury, mean ± one standard error of the mean, 0 to 9 scale (0 no injury, 9 plant death) ([5]; 35 g ai/ha + 0.5% v/v Merge): 7.22 ± 0.18; Herbicide injury, mean ± one standard error of the mean, 0 to 9 scale (0 no injury, 9 plant death) ([5]; 70 g ai/ha + 0.5% v/v Merge): 8.61 ± 0.12; Herbicide injury, mean ± one standard error of the mean, 0 to 9 scale (0 no injury, 9 plant death) ([5]; 210 g ai/ha + 0.5% v/v Merge): 9.00 ± 0.00; Herbicide injury, mean ± one standard error of the mean, 0 to 9 scale (0 no injury, 9 plant death) ([6]; 35 g ai/ha + 0.5% v/v Merge): 1.21 ± 0.33; Herbicide injury, mean ± one standard error of the mean, 0 to 9 scale (0 no injury, 9 plant death) ([6]; 70 g ai/ha + 0.5% v/v Merge): 4.13 ± 0.36; Herbicide injury, mean ± one standard error of the mean, 0 to 9 scale (0 no injury, 9 plant death) ([6]; 210 g ai/ha + 0.5% v/v Merge): 4.93 ± 0.53; Herbicide injury, mean ± one standard error of the mean, 0 to 9 scale (0 no injury, 9 plant death) ([7]; 35 g ai/ha + 0.5% v/v Merge): 1.81 ± 0.25; Herbicide injury, mean ± one standard error of the mean, 0 to 9 scale (0 no injury, 9 plant death) ([7]; 70 g ai/ha + 0.5% v/v Merge): 4.14 ± 0.23; Herbicide injury, mean ± one standard error of the mean, 0 to 9 scale (0 no injury, 9 plant death) ([7]; 210 g ai/ha + 0.5% v/v Merge): 6.17 ± 0.22; amount of tolerance (100% minus crop injury) [8]: 20%; amount of tolerance (100% minus crop injury) ([9]; field, 15 days after treatment, double mutant line BnCL131A1 (BN-02)): 62%; expected tolerance if additive (A122T plus S653N) ([9]; sum of tolerances of the two single mutant lines): 37%; amount of tolerance (100% minus crop injury) [10]: 17%
